From a compilation of properties of binary mixtures (doi:10.1039/c7qm00510e)

Assay: xn = mol fraction of the nth substance listed
Settings: 101 kPa

CCCCCCCCCCOS(=O)(=O)[O-].CC[n+]1ccn(C)c1 + O
electrical conductivity [S/m]
Settings | 303.15 K | 313.15 K | 323.15 K | 333.15 K | 343.15 K | 353.15 K | 363.15 K | 372.95 K
x1 = 0.075 | 2.53 | 3.16 | 3.83 | 4.55 | 5.29 | 6.06 | – | –
x1 = 0.317 | – | – | – | – | 1.34 | 1.63 | 1.96 | 2.23
